The values that follow come from US7763707B2, “Use of ghrelin splice variant for treating cachexia and/or anorexia and/or anorexia-cachexia and/or malnutrition and/or lipodystrophy and/or muscle wasting and/or appetite-stimulation” (priority 2006, dated 2010).

Square brackets hold non-standard residues; d marks the D form. Ends that are not written are not given here. * marks the point of attachment. Octanoyl = CCCCCCCC(=O)*; Dap = NC[C@H](N)C(=O)O

A short description of assay [1]: Subcutaneous administration of acylated ghrelin splice variant: weight gain, food consumption, body composition in 129Sv mice. The assay is classed as in vivo. The method, then: FIG. 1A is a line graph showing cumulative body weight gain of acylated ghrelin splice variant-treated (SEQ ID NOs: 2 and 5) 129Sv mice compared to vehicle-treated controls. Acylated ghrelin splice variant induces body weight gain in male wild-type mice (n=10 per group, P=0.0001). In mice treated once daily for two weeks with acylated ghrelin splice variant (0.8 mg/kg, subcutaneously), cumulative weight gain of the SEQ ID NO:2 group was 3.4 times more than the vehicle-injected control animals. Cumulative weight gain of the acylated SEQ ID NO:5 group was 2 times more than the vehicle-injected control animals. FIG. 1B is a line graph showing cumulative food consumption of acylated ghrelin splice variant-treated (SEQ ID NOs: 2 and 5) 129Sv mice compared to vehicle-treated controls. […] Mice treated once daily for two weeks with acylated ghrelin splice variant (0.8 mg/kg, subcutaneously) ate 13% more than the vehicle-injected control animals (n=10 per group, P=0.004).
FIG. 2A is a line graph showing cumulative body weight gain of acylated ghrelin splice variant-treated (SEQ ID NOs: 2 and 4) 129Sv mice and of unacylated SEQ ID NO:5 compared to vehicle-treated controls. Acylated ghrelin splice variants induces body weight gain in male wild-type mice (n=8 per group, P=0.0001). In mice treated once daily for seven days with acylated or un-acylated ghrelin splice variant (7.2 mg/kg, subcutaneously), cumulative weight gain of the SEQ ID NO:2 and SEQ ID NO:4 group was 2.2 times more than the vehicle-injected control animals. Cumulative weight gain of the un-acylated SEQ ID NO:5 group was 25% less than the vehicle-injected control animals. FIG. 2B is a line graph showing cumulative food consumption of acylated ghrelin splice variant-treated (SEQ ID NOs: 2 and 4) 129Sv mice and of unacylated SEQ ID NO:5 compared to vehicle-treated controls. […] Mice treated once daily for seven days with acylated ghrelin splice variants (7.2 mg/kg, subcutaneously) ate 18% more than the vehicle-injected control animals (n=8 per group). Mice treated once daily for seven days with SEQ ID NO:5 (7.2 mg/kg, subcutaneously) ate 2% less than the vehicle-injected control animals (n=8 per group).
FIG. 4 is a bar graph showing the change in body composition of acylated ghrelin splice variant-treated (SEQ ID NOs: 2 and 4) 129Sv mice and unacylated SEQ ID NO:5 treated mice compared to vehicle and ghrelin-treated controls. Effect of seven days daily subcutaneous treatment with saline, ghrelin or acylated ghrelin splice variant (7.2 mg/kg, subcutaneously) on fat and lean body mass as measured by NMR is shown.
Acylated ghrelin splice variant (20 μg (FIGS. 1A and 1B) or 180 μg (FIGS. 2A and 2B)) or the Vehicle (1.6% mannitol) were administered once daily for 14 successive days (FIGS. 1A and 1B) or 7 successive days (FIGS. 2A and 2B), via the subcutaneous (SC) route, to groups comprising n=10 (FIGS. 1A and 1B) or n=8 (FIGS. 2A and 2B) 129Sv male mice. […] All animals were subjected to terminal bleeding, under CO2 anesthesia, immediately prior to euthanasia. Terminal blood collection was performed serially as per animal number, and not as per group.
Biochemistry: Blood for biochemistry analysis was collected into non-coated pre-labeled tubes. The tubes were pre-labeled and contained the following information: Study number, group number, animal number and date. Following clotting, the blood from each animal was centrifuged, and the serum was collected into two pre-labeled tubes and submitted for analysis as follows: Serum, 250 μl, was kept at 2-8° C. until analysis. The samples were subjected to the following listed tests using a Hitachi 917 system: Creatinine, Total bilirubin, Glucose, Triglycerides, Cholesterol, HDL, LDL, Total protein, Globulin, Albumin, Urea, Potassium, Phosphorus, Calcium, Sodium, Chloride, sGOT, sGPT, ALP. Urinalysis: Urine was collected into pre-labeled tubes (as above) from all animals (where possible) prior and/or after euthanasia. […]

The conditions of assay [2]: cited from earlier work.
The mark [3] stands for this setting: 129Sv male mice, 0.8 mg/kg subcutaneously once daily for two weeks, n=10 per group.
Setting [4] is: 129Sv male mice, 7.2 mg/kg subcutaneously once daily for seven days, n=8 per group.

For “GSS (CO—C7H15) FLSPEHQRVQVRPPHKAPH (GSS(Octanoyl)FLSPEHQRVQVRPPHKAPH; listed as Homo sapiens) [SEQ ID NO:2, 22 amino acid human ghrelin splice variant, acylated at position 3]”, the results for the “cumulative weight gain, times more than the vehicle-injected control animals” value in assay [1] (setting [3]) and in assay [1] (setting [4]) were 3.4 times and 2.2 times, respectively. Consider “SEQ ID NO:4: 24 amino acid human ghrelin splice variant having a 2,3-diaminopropionic acid (Dpr) residue in the third position, acylated (GS[Dap]FLSPEHQRVQVRPPHKAPHVV; also: Dpr3 acylated, acyl group not given here; listed as Homo sapiens)”, for which the “cumulative weight gain, times more than the vehicle-injected control animals” value in assay [1] (setting [4]) is given as 2.2 times. For the substance “acylated SEQ ID NO:5: 29 amino acid human ghrelin splice variant, acylated at position 3 (GSSFLSPEHQRVQVRPPHKAPHVVPALPL; also: acylated at position 3 (acyl group not given here); listed as Homo sapiens)”, the “cumulative weight gain, times more than the vehicle-injected control animals” value in assay [1] (setting [3]) was found to be 2 times.

Consider “ghrelin: 28 amino acid peptide bearing an n-octanoyl side chain on the third serine (GSS(Octanoyl)FLSPEHQRVQQRKESKKPPAKLQPR; UniProt Q9UBU3 24-51, looked up)”, for which, in assay [1] (Applicant's statement in the background), the “effect of weight gain (lean vs fat mass)” value is recorded as “mainly on fat mass”. Moreover, the “increase of food intake” value in assay [2] (infusion for 90 minutes, cancer cachexia patients) is reported as 30%. Further, the “increase of energy intake” value in assay [2] (subcutaneous injection of 3.6 nmol/kg prior to a meal) was 27%. For the substance “un-acylated SEQ ID NO:5: 29 amino acid human ghrelin splice variant without acyl group (GSSFLSPEHQRVQVRPPHKAPHVVPALPL; listed as Homo sapiens)”, the “cumulative weight gain, less than the vehicle-injected control animals” value in assay [1] (setting [4]) is 25%. Also, in assay [1] (129Sv mice, 7.2 mg/kg subcutaneously once daily for seven days, n=8 per group), the “cumulative food consumption, less than the vehicle-injected control animals” value is listed as 2%.
